The values below come from US11272841B2, “Indicator fluids, systems, and methods for assessing movement of substances within, to or from a cerebrospinal fluid, brain or spinal cord compartment of a cranio-spinal cavity of a human” (BRAINWIDESOLUTIONS AS, priority 2017, dated 2022).

A short description of data set [1]: Gadobutrol concentration in blood at time points after gadobutrol was present in CSF (FIG. 1e-h). The class given is in vivo, human. The source says:
In test studies, the inventors measured concentrations of the indicator fluid gadobutrol in blood at different time points after indicator fluid was present in CSF. […] In FIG. 1e-h are provided examples of measurements of gadobutrol (indicator fluid) concentrations in blood. On the y-axis is shown the indicator fluid concentration level 119 in blood (i.e. concentration of gadobutrol measured in units mg/kg), and on x-axis the time 120 elapsed from gadobutrol was present within the CSF. The concentration level of gadobutrol was measured after different time points 120, including after 1-2 hours, 3-4 hours, 5-6 hours, 7-8 hours, 23-26 hours, and 46-49 hours, for different individuals.
With reference to FIG. 1e, trend plots of average values of gadobutrol concentrations in blood (mg/kg) are shown for individuals with intracranial hypotension 121 (symbol ♦; n=4), idiopathic intracranial hypertension 122 (symbol ●; n=1), idiopathic normal pressure hydrocephalus 123 (symbol ▴; n=1), cerebral cyst 124 (symbol O; n=4), and arachnoid cyst 125 (symbol ▪; n=4). The letter n refers to number of individuals within each group. […] Half-time of gadobutrol in blood is about 1.8 hours. It should be noted that the amount and time course of appearance of gadobutrol in blood differs for the various groups of individuals, related to the fact that the ability to remove substances from the cranio-spinal compartment varies between individuals. […] The concentrations may be determined after 24 or 48 hours or after any time point within 72 hours after the indicator fluid is present in CSF.
In FIG. 1f-h, the inventors provide some examples of measurements of indicator fluid (the MRI contrast agent gadobutrol) concentration level in blood at different time points after indicator fluid being present in CSF in three separate individuals. It should be noted that the invention gives no limitation regarding the method by which the blood concentration is measured. […]

For data set [2] the following is noted: human, in vivo.
Procedure: Repeated T1-weighted MRI scans of the intracranial compartment (and neck region for imaging of cervical lymph nodes), either in the presence or absence of the MRI contrast agent gadobutrol (0.5 ml of 1.0 mmol/ml; Gadovist®, Bayer Pharma AG, GE) delivered to the CSF compartment. MRI scans were acquired on a 3 Tesla Philips Ingenia MRI scanner (Philips Medical systems, Best, The Netherlands). The inventors used a dedicated imaging protocol for each region, that was applied to all time points. The following parameters for 3D T1 w imaging of the intracranial compartment were used: repetition time (TR)=5.1 ms (set to minimum), echo time (TE)=2.3 ms (set to minimum), flip angle=8 degrees, field of view=256×256 cm, and matrix=256×256 pixels (reconstructed 512×512). Total 184 over-contiguous slices with 1 mm thickness were sampled and automatically reconstructed to 368 slices and a thickness of 0.5 mm. Each image acquisition lasted 6 minutes and 29 seconds. An automated anatomy recognition protocol based on landmark detection in MRI data (SmartExam™, Philips Medical Systems, Best, The Netherlands) was applied at every time point to secure consistency and reproducibility of the MRI studies. Neck images were obtained in an anatomical standardized coronal plane, using T1 weighted turbo spin echo (TSE) DIXON with the following main image sequence parameters: TR=560 ms, TE=14 ms, flip angle=90 degrees, field of view 250×198 mm, voxel size=1×1×3 mm reconstructed to 0.58×0.58×3 mm^3, gap 0.3 mm, number of slices=30. For detection of neck lymph nodes, we obtained coronal T2 weighted TSE DIXON with TR=ranged 2500-3500 (actual 2500), TE=80 ms, flip angle=90 degrees, field of view 250×200 mm, resolution 0.6×0.79×3 mm^3 reconstructed to 0.58×0.58×3 mm^3, gap 0.3 mm, number of slices=30. Moreover, to ensure same position on the coronal slices between scan times a screen dump showing the placement of the first coronal images was saved and used as a reference for subsequent planning by the radiographer. […]
The nature of data set [3]: T1 black-blood MRI: percentage change in normalized signal units in CSF and parasagittal dura after intrathecal gadobutrol, cohort of 18 individuals (FIG. 23g-w). The class given is in vivo, human. The source says:
It has for long been an unanswered question how a molecular substance escapes from the CSF of the craniospinal compartment to the dural lymphatics and further to extracranial lymph nodes in humans. Experimental studies in animals have indicated a role of lymphatic vessels in dura mater, but this has yet to be shown in human subjects. The present invention addresses removal of molecular substances from the craniospinal compartment in humans. Basis for the various aspects of the invention are novel observations made by the inventors regarding transport of indicator fluids from CSF to lymphatic structures in dura. The inventors have provided novel observations using time series of MRI T1 black-blood sequences after intrathecal administration of the MRI contrast agent gadobutrol. […]
FIG. 23o-s illustrate the determination of signal unit ratios, which is particularly useful when measuring indication signals from MRI. Enrichment of indicator fluid is measured as change in T1-BB signal units. […] The enrichment of CSF tracer is quantified as change in signal units (SU) within the regions of interest that are marked by an open circle. The measured signal units were normalized against the reference to correct for any baseline shift of image greyscale between time points. […]

The conditions of data set [4]: cited from earlier work.

Turning to `O=C([O-])CN1CCN(CC(=O)[O-])CCN([C@H](CO)[C@H](O)CO)CCN(CC(=O)[O-])CC1.[Gd+3]` (racemic) [gadobutrol], the “Time of maximum concentration in blood after gadobutrol present in CSF” value was 3 to 4 h in data set [1] (group trend plot: arachnoid cyst (n=4)); 7 to 8 h in data set [1] (group trend plot: cerebral cyst (n=4)); 5 to 6 h in data set [1] (group trend plots: intracranial hypotension (n=4), idiopathic intracranial hypertension (n=1), iNPH (n=1)). In addition, the “Increase of indication signal as compared without contrast” value in data set [2] is given as 29%. The “SU enhancement within cervical LNs as proportion of that in the brain” value in data set [2] is on record as “about 40%”. For the same compound, the “Time of peak enhancement in T1 SUs after gadobutrol present within CSF” value in data set [2] was 24 h. Moreover, the “Time of peak signal change (normalized T1-BB signal units)” value in data set [3] (CSF nearby parasagittal dura) and in data set [3] (parasagittal dura) was 24 h throughout. For the same compound, in data set [4], the “Half-time of gadobutrol in blood” value is recorded as “about 1.8 hours”.
